Measurements taken from PMC6022228, “Introducing novel potent anticancer agents of 1H-benzo[f]chromene scaffolds, targeting c-Src kinase enzyme with MDA-MB-231 cell line anti-invasion effect” (Journal of Enzyme Inhibition and Medicinal Chemistry, 2018).
Values after ≈ are worked out from the molar mass of the structure shown.

Key:
MCF-7 = test: MTT viability assay, MCF-7 (breast cancer); format: cell-based; conditions: Homo sapiens, MCF7, 24 h incubation, mean ± standard error
Method: (§1) Compounds 4a–h and 6a–h were initially evaluated for in vitro antitumour activity against three different human cell lines: MCF-7, HCT-116, and HepG-2, and only the representative active cytotoxic compounds were further evaluated against the normal HFL-1 cell line. The in vitro cytotoxicity evaluation was performed at the Regional Center for Mycology & Biotechnology (RCMP), Al-Azhar University under different concentrations (50, 25, 12.5, 6.25, 3.125, 1.56, and 0 µg/mL); Vinblastine and Doxorubicin are used as reference cytotoxic compounds. The measurements of cell growth and the in vitro cytotoxicity evaluation were determined using viability assay as described in literature[31–33] and the result was cited in Table 1 and Figure 2.
(§2) The in vitro cytotoxic evaluation of the prepared compounds 4a–h and 6a–h was performed against MCF-7 (breast cancer), HCT-116 (human colon cancer), HepG-2 (liver cancer), and HFL-1(normal fibroblast lung) using the 3-(4,5-dimethylthiazol-2-yl)-2,5-diphenyl tetrazolium bromide (MTT) colorimetric assay as described in literature. […] The results were expressed as growth inhibitory concentration (IC50) values, which represent the compounds’ concentrations required to produce a 50% inhibition of the cell growth after 24 h of incubation, compared to the untreated controls as shown in Table 1 and Figure 2.

HCT-116 = test: MTT viability assay, HCT-116 (human colon cancer); format: cell-based; conditions: 24 h incubation, mean ± standard error
Method: as §1, §2

HepG-2 = test: MTT viability assay, HepG-2 (liver cancer); format: cell-based; conditions: Homo sapiens, HepG2, 24 h incubation, mean ± standard error
Method: as §1, §2

IC50 (MCF-7) [mg/L]	IC50 (HCT-116) [mg/L]	IC50 (HepG-2) [mg/L]	melting point [°C]	SMILES
3.6 ± 0.01 (≈ 8.23 µM)	3.7 ± 0.15 (≈ 8.46 µM)	2.8 ± 0.17 (≈ 6.4 µM)	220 to 221	COc1ccc(C2C(C#N)=C(N)Oc3ccc4cc(Br)ccc4c32)c(OC)c1 (centres unmarked) [Compound 4g, 3-Amino-8-bromo-1-(2,4-dimethoxyphenyl)-1H-benzo[f]chromene-2-carbonitrile]
5.2 ± 0.03 (≈ 13.2 µM)	1 ± 0.12 (≈ 2.53 µM)	0.8 ± 0.12 (≈ 2.02 µM)	242 to 243	N#CC1=C(N)Oc2ccc3cc(Br)ccc3c2C1c1ccc(F)cc1 (centres unmarked) [Compound 4b, 3-Amino-8-bromo-1-(4-fluorophenyl)-1H-benzo[f]chromene-2-carbonitrile]
3.1 ± 0.29 (≈ 8.54 µM)	2.5 ± 0.97 (≈ 6.89 µM)	0.3 ± 0.08 (≈ 0.827 µM)	247 to 248	COc1ccc2c3c(ccc2c1)OC(N)=C(C#N)C3c1ccc(Cl)cc1 (centres unmarked) [Compound 6c, 3-Amino-1-(4-chlorophenyl)-8-methoxy-1H-benzo[f]chromene-2-carbonitrile]
2.5 ± 0.14 (≈ 5.48 µM)	0.5 ± 0.35 (≈ 1.1 µM)	1.8 ± 0.2 (≈ 3.95 µM)	250 to 251	N#CC1=C(N)Oc2ccc3cc(Br)ccc3c2C1c1ccc(Br)cc1 (centres unmarked) [Compound 4d, 3-Amino-8-bromo-1-(4-bromophenyl)-1H-benzo[f]chromene-2-carbonitrile]
2.7 ± 0.2 (≈ 8.22 µM)	2.1 ± 0.23 (≈ 6.4 µM)	11.2 ± 0.18 (≈ 34.1 µM)	237 to 238	COc1ccc2c3c(ccc2c1)OC(N)=C(C#N)C3c1ccccc1 (centres unmarked) [Compound 6a, 3-Amino-1-phenyl-8-methoxy-1H-benzo[f]chromene-2-carbonitrile]
0.6 ± 0.08 (≈ 1.67 µM)	3.8 ± 0.14 (≈ 10.6 µM)	29.3 ± 0.12 (≈ 81.8 µM)	222 to 223	COc1ccc(C2C(C#N)=C(N)Oc3ccc4cc(OC)ccc4c32)cc1 (centres unmarked) [Compound 6f, 3-Amino-8-methoxy-1-(4-methoxyphenyl)-1H-benzo[f]chromene-2-carbonitrile]
41.1 ± 0.25 (≈ 106 µM)	13.9 ± 0.3 (≈ 35.8 µM)	30.7 ± 0.5 (≈ 79 µM)	200 to 201	COc1ccc2c3c(ccc2c1)OC(N)=C(C#N)C3c1ccc(OC)c(OC)c1 (centres unmarked) [Compound 6h, 3-Amino-1-(3,4-dimethoxyphenyl)-8-methoxy-1H-benzo[f]chromene-2-carbonitrile]
16 ± 0.92 (≈ 41.2 µM)	10.9 ± 0.5 (≈ 28.1 µM)	9 ± 0.3 (≈ 23.2 µM)	210 to 211	COc1ccc(C2C(C#N)=C(N)Oc3ccc4cc(OC)ccc4c32)c(OC)c1 (centres unmarked) [Compound 6g, 3-Amino-1-(2,4-dimethoxyphenyl)-8-methoxy-1H-benzo[f]chromene-2-carbonitrile]
3.8 ± 0.36 (≈ 9.33 µM)	44.9 ± 0.14 (≈ 110 µM)	4.4 ± 0.05 (≈ 10.8 µM)	234 to 235	COc1ccc(C2C(C#N)=C(N)Oc3ccc4cc(Br)ccc4c32)cc1 (centres unmarked) [Compound 4f, 3-Amino-8-bromo-1-(4-methoxyphenyl)-1H-benzo[f]chromene-2-carbonitrile]
0.4 ± 0.01 (≈ 0.736 µM)	0.5 ± 0.015 (≈ 0.92 µM)	0.9 ± 0.04 (≈ 1.66 µM)		COc1cccc2c1C(=O)c1c(O)c3c(c(O)c1C2=O)C[C@@](O)(C(=O)CO)C[C@@H]3O[C@H]1C[C@H](N)[C@H](O)[C@H](C)O1 [Doxorubicin, reference compound]
0.9 ± 0.29 (≈ 2.39 µM)	1.2 ± 0.97 (≈ 3.18 µM)	0.7 ± 0.5 (≈ 1.86 µM)	245 to 246	N#CC1=C(N)Oc2ccc3cc(Br)ccc3c2C1c1ccccc1 (centres unmarked) [Compound 4a, 3-Amino-8-bromo-1-phenyl-1H-benzo[f]chromene-2-carbonitrile]
6.1 ± 0.03 (≈ 7.52 µM)	2.6 ± 0.08 (≈ 3.21 µM)	4.6 ± 0.01 (≈ 5.67 µM)		CC[C@]1(O)C[C@@H]2CN(CCc3c([nH]c4ccccc34)[C@@](C(=O)OC)(c3cc4c(cc3OC)N(C)[C@H]3[C@@](O)(C(=O)OC)[C@H](OC(C)=O)[C@]5(CC)C=CCN6CC[C@]43[C@@H]65)C2)C1 [Vinblastine, reference compound]
4.4 ± 0.05 (≈ 12.7 µM)	4.9 ± 0.01 (≈ 14.1 µM)	0.5 ± 0.01 (≈ 1.44 µM)	256 to 257	COc1ccc2c3c(ccc2c1)OC(N)=C(C#N)C3c1ccc(F)cc1 (centres unmarked) [Compound 6b, 3-Amino-1-(4-flourophenyl)-8-methoxy-1H-benzo[f]chromene-2-carbonitrile]
